The results in this text go back to US20230079819A1, “COMPOUNDS AND USES THEREOF” (Foghorn Therapeutics Inc., priority 2019, published 2023).

One test concerns the target T1, BRM (Homo sapiens, UniProt P51531).
T1 construct: made in house; host or cells: High Five insect cells
Kind of test: ATPase catalytic activity of BRM, ADP-Glo in vitro biochemical assay. Particulars: ATPase catalytic activity, 30 nM BRM, 400 μM ATP, read-out: BRM IP50. (In general: ADP-Glo turns the ADP formed in a reaction into a luminescent signal.)

The next test deals with T2, BRG-1 (Homo sapiens, UniProt P51532).
T2 construct: made in house; host or cells: High Five insect cells
T2 sequence (P51532 whole entry): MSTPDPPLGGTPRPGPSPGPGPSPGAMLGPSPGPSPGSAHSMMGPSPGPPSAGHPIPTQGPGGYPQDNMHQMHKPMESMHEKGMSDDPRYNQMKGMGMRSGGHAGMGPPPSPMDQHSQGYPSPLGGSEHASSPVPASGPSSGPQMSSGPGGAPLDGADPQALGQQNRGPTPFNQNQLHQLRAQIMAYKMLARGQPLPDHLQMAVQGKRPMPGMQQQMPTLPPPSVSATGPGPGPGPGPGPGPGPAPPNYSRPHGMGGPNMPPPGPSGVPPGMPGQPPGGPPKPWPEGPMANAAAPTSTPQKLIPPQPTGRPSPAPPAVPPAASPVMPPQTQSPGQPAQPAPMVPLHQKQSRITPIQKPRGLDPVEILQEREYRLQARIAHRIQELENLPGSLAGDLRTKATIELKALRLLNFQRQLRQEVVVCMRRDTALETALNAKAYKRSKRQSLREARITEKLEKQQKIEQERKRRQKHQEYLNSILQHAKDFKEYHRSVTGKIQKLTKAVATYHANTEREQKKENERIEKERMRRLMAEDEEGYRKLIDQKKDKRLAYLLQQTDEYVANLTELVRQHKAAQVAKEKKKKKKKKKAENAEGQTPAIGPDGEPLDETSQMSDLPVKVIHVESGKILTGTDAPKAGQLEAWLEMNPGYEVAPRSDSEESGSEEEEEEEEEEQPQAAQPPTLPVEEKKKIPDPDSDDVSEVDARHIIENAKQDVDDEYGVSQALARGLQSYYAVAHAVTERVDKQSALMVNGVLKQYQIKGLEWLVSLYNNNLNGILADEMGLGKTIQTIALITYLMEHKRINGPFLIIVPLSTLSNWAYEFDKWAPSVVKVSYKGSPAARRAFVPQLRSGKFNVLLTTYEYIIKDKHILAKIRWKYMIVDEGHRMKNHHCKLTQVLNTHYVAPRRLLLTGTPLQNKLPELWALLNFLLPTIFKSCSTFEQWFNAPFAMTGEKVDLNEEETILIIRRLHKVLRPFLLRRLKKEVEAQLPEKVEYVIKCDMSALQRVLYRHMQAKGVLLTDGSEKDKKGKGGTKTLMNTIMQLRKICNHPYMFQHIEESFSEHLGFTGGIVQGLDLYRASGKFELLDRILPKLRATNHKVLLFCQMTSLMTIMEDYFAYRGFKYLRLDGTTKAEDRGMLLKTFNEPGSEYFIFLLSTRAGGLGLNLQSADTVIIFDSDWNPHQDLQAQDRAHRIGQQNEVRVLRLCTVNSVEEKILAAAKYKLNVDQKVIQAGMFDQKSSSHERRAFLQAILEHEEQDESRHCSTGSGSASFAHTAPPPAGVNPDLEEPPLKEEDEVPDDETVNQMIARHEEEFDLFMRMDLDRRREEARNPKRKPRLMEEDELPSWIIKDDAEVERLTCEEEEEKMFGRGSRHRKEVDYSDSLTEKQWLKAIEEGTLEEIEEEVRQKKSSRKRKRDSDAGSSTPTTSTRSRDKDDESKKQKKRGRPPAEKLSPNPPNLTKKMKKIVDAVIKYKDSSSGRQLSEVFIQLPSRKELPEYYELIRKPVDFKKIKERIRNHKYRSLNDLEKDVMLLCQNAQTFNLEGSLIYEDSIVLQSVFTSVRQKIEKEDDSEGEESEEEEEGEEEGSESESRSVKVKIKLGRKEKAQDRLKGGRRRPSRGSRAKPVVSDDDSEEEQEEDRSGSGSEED
Briefly: ATPase catalytic activity of BRG-1, ADP-Glo in vitro biochemical assay. Particulars: ATPase catalytic activity, 30 nM BRG-1, 400 μM ATP, read-out: BRG1 IP50.

T1 sequence (P51531 whole entry): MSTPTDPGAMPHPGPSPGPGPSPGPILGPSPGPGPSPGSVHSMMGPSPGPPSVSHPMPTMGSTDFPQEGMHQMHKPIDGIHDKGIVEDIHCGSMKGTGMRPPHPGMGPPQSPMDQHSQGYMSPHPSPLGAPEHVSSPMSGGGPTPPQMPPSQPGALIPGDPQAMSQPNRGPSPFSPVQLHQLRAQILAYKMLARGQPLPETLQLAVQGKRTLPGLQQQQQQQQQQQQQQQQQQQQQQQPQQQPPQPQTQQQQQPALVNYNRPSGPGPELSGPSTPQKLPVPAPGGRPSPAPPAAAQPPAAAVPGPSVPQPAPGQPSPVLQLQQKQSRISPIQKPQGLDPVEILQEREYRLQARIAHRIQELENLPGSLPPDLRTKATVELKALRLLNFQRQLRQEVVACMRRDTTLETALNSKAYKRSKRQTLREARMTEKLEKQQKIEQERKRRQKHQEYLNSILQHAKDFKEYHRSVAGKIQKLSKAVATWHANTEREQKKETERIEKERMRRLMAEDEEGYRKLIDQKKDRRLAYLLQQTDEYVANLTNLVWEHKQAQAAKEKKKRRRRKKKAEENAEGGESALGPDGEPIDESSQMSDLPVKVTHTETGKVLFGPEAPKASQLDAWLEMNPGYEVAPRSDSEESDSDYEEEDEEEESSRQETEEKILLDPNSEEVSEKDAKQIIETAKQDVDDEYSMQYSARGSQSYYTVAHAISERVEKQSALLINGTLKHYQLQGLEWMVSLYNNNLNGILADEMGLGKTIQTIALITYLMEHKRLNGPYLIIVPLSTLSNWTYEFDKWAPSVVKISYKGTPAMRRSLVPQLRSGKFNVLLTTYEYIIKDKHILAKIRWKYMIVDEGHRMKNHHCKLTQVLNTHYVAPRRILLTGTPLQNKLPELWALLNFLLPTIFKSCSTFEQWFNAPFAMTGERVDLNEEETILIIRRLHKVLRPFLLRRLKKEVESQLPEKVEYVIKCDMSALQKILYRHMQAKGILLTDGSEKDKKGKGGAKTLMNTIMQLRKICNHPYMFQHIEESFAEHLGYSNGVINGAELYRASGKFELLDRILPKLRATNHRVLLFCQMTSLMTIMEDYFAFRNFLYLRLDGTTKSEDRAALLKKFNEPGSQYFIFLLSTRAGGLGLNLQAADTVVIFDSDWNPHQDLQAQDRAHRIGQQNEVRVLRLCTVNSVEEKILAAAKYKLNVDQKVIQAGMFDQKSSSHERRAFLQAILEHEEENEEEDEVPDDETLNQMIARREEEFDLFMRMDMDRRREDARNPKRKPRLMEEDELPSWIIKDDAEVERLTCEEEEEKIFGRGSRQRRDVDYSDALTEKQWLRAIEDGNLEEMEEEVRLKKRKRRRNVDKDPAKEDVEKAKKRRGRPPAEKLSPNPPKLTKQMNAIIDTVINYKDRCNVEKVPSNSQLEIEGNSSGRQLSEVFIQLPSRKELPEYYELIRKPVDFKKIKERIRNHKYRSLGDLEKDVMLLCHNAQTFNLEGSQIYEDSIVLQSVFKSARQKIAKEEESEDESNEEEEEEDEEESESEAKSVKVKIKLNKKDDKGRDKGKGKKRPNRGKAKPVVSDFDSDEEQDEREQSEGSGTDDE

Consider `C[C@@]1(n2ccc(C(=O)NCC(=O)Nc3nc(-c4cccc(N5CCC5)c4)cs3)c2)CC1(F)F` [Compound 651], for which the IC50 on BRM is more than 100 nM; on BRG-1, more than 1000 nM.

Regarding `C[C@]1(n2ccc(C(=O)NCC(=O)Nc3nc(-c4cccc(N5CCC5)c4)cs3)c2)CC1(F)F` [Compound 652], the IC50 at BRM and on BRG-1 was more than 10 nM throughout.

As to `CC(C)(C)n1ccc(C(=O)NCC(=O)Nc2nc(-c3cccc(N4CCCC5(COC5)C4)n3)cs2)c1` [Compound 653], the IC50 at BRM and on BRG-1 was more than 10 nM throughout.

Regarding `C[C@H]1CCN(c2cccc(-c3csc(NC(=O)CNC(=O)c4ccn(C(C)(C)C)c4)n3)n2)C1` [Compound 654], the IC50 on BRM and on BRG-1 was more than 10 nM throughout.

As for `Cc1nnc2n1CCN(c1cccc(-c3csc(NC(=O)CNC(=O)c4ccn(C(C)(C)C)c4)n3)n1)C2` [Compound 655], the IC50 on BRM and at BRG-1 was more than 100 nM throughout.

With `CC(C)(C)n1ccc(C(=O)NCC(=O)Nc2nc(-c3cccc(N4CCC(S(C)(=O)=O)CC4)n3)cs2)c1` [Compound 656], the IC50 at BRM and at BRG-1 was more than 100 nM in each case.

As for `CC(C)(C)n1ccc(C(=O)NCC(=O)Nc2nc(-c3cccc(N4CCn5ccnc5C4)n3)cs2)c1` [Compound 657], the IC50 on BRM was more than 10 nM; at BRG-1 it was more than 100 nM.

Regarding `CN1CCc2cc(-c3csc(NC(=O)CNC(=O)c4ccn(S(C)(=O)=O)c4)n3)ccc21` [Compound 658], the IC50 on BRM and at BRG-1 was more than 10 nM each time.

Regarding `CC(C)(C)n1ccc(C(=O)NCC(=O)Nc2nc(-c3cccc(N4CC[C@H]5OCCC[C@@H]5C4)n3)cs2)c1` [Compound 659], the IC50 on BRM was more than 10 nM; on BRG-1, more than 100 nM.

As for `CC(C)(C)n1ccc(C(=O)NCC(=O)Nc2nc(-c3cccc(N4CC5CN(c6ccncc6)CC5C4)n3)cs2)c1` (stereo not shown) [Compound 660], the IC50 at BRM and at BRG-1 was more than 100 nM each time.

In the case of `CC(C)(C)n1ccc(C(=O)NCC(=O)Nc2nc(-c3cccc(N4C[C@@H]5OCC(F)(F)[C@@H]5C4)n3)cs2)c1` [Compound 661], the IC50 on BRM and on BRG-1 was more than 100 nM in each case.

Turning to `CC(C)(C)n1ccc(C(=O)NCC(=O)Nc2nc(-c3cccc(N4CC[C@H]5COC[C@@H]5C4)n3)cs2)c1` [Compound 662], the IC50 on BRM and on BRG-1 was less than 10 nM in each case.

With `CC(C)(C)n1ccc(C(=O)NCC(=O)Nc2nc(-c3cccc(N4C[C@@H](F)[C@@H](F)C4)n3)cs2)c1` [Compound 664], the IC50 on BRM was more than 10 nM; on BRG-1, more than 100 nM.

On to `CC(C)(C)n1ccc(C(=O)NCC(=O)Nc2nc(-c3cccc(N4CCN(S(C)(=O)=O)CC4)n3)cs2)c1` [Compound 665], for which the IC50 on BRM and at BRG-1 was more than 100 nM throughout.

Take `CC(C)(C)n1ccc(C(=O)NCC(=O)Nc2nc(-c3cccc(N4CCC(S(C)(=O)=O)C4)n3)cs2)c1` (stereo not shown) [Compound 667]: the values for the IC50 on BRM and at BRG-1 were more than 10 nM and more than 100 nM, respectively.

As for `CC(C)(C)n1ccc(C(=O)NCC(=O)Nc2nc(-c3cccc(N4CCCC5(CCO5)C4)n3)cs2)c1` (stereo not shown) [Compound 668], the IC50 on BRM and on BRG-1 was more than 10 nM throughout.

Consider `CC(C)(C)n1ccc(C(=O)NCC(=O)Nc2nc(-c3cccc(N4CCCC5(CCCO5)C4)n3)cs2)c1` (stereo not shown) [Compound 669], for which the IC50 at BRM and at BRG-1 was more than 100 nM throughout.

On to `CN(C)[C@@H]1CCN(c2cccc(-c3csc(NC(=O)CNC(=O)c4ccn(C(C)(C)C)c4)n3)n2)C1` [Compound 670], for which the figures for the IC50 at BRM and on BRG-1 were more than 10 nM and more than 100 nM, respectively.

Take `CC(C)(C)n1ccc(C(=O)NCC(=O)Nc2nc(-c3cccc(N4CCC5(CCOC5)C4)n3)cs2)c1` (stereo not shown) [Compound 671]: the IC50 was more than 10 nM on BRM and more than 100 nM on BRG-1.

As for `CC(C)(C)n1ccc(C(=O)NCC(=O)Nc2nc(-c3cccc(N4CCC(C#N)C4)n3)cs2)c1` (stereo not shown) [Compound 672], the IC50 at BRM and on BRG-1 was more than 10 nM each time.

On to `C[C@@H]1CCN(c2cccc(-c3csc(NC(=O)CNC(=O)c4ccn(C(C)(C)C)c4)n3)n2)C1` [Compound 673], for which the IC50 at BRM and on BRG-1 was more than 10 nM in each case.

As for `CC(C)(C)n1ccc(C(=O)NCC(=O)Nc2nc(-c3cccc(N4C[C@H]5COC[C@H]5C4)n3)cs2)c1` [Compound 674], the IC50 at BRM and on BRG-1 was more than 10 nM throughout.

As for `CC(C)(C)n1ccc(C(=O)NCC(=O)Nc2nc(-c3cccc(N4CCC(F)C4)n3)cs2)c1` (stereo not shown) [Compound 675], the IC50 on BRM and at BRG-1 was more than 10 nM throughout.

On to `CC(C)(C)n1ccc(C(=O)NCC(=O)Nc2nc(-c3cccc(N4CCC5OCCC5C4)n3)cs2)c1` (stereo not shown) [Compound 676], for which the IC50 on BRM and at BRG-1 was more than 10 nM each time.

With `CC(C)(C)n1ccc(C(=O)NCC(=O)Nc2nc(-c3cccc(N4C[C@@H](F)[C@H](F)C4)n3)cs2)c1` [Compound 677], the IC50 at BRM and on BRG-1 was more than 100 nM throughout.

Regarding `Cc1cc(N2CCN(c3cccc(-c4csc(NC(=O)CNC(=O)c5ccn(C(C)(C)C)c5)n4)n3)CC2)ccn1` [Compound 678], the IC50 on BRM and at BRG-1 was more than 100 nM each time.

Take `CC(C)(C)n1ccc(C(=O)NCC(=O)Nc2nc(-c3cccc(N4CCC(F)(F)C4)n3)cs2)c1` [Compound 679]: the IC50 at BRM and on BRG-1 was more than 10 nM throughout.

As to `CN(C)C1CCCN(c2cccc(-c3csc(NC(=O)CNC(=O)c4ccn(C(C)(C)C)c4)n3)n2)C1` (stereo not shown) [Compound 680], the IC50 is more than 10 nM at BRM and more than 100 nM on BRG-1.

As for `CC(C)(C)n1ccc(C(=O)NCC(=O)Nc2nc(-c3cccc(N4CCc5cnccc5C4)n3)cs2)c1` [Compound 681], the figures for the IC50 at BRM and on BRG-1 were less than 10 nM and more than 10 nM, respectively.

Consider `CC(C)(C)n1ccc(C(=O)NCC(=O)Nc2nc(-c3cccc(N4CCC(n5cncn5)CC4)n3)cs2)c1` [Compound 682], for which the IC50 at BRM and on BRG-1 was more than 100 nM each time.

For `CS(=O)(=O)n1ccc(C(=O)NCC(=O)Nc2nc(-c3cccc(N4CC[C@@H](C(F)F)C4)n3)cs2)c1` [Compound 683], the IC50 at BRM and on BRG-1 was more than 10 nM in each case.

For the compound `COCC1CN(c2cccc(-c3csc(NC(=O)CNC(=O)c4ccn(C(C)(C)C)c4)n3)n2)CCO1` (stereo not shown) [Compound 684], the IC50 on BRM and at BRG-1 was more than 10 nM throughout.

With `C[C@@H]1CN(c2cncc(-c3csc(NC(=O)CNC(=O)c4ccn(C(C)(C)C)c4)n3)c2)C[C@H](C)O1` [Compound 685], the figures for the IC50 on BRM and on BRG-1 were more than 10 nM and more than 100 nM, respectively.

`C[C@@H]1CN(c2cncc(-c3csc(NC(=O)CNC(=O)c4ccn(S(C)(=O)=O)c4)n3)c2)C[C@H](C)O1` [Compound 686]: the IC50 on BRM and on BRG-1 was more than 10 nM each time.

Regarding `CC(C)(C)n1ccc(C(=O)NCC(=O)Nc2nc(-c3cccc(N4CC(F)C4)n3)cs2)c1` [Compound 687], the IC50 is more than 10 nM at BRM and more than 100 nM on BRG-1.

For `COC[C@H](NC(=O)c1ccn(S(C)(=O)=O)c1)C(=O)Nc1nc(-c2ccc3c(c2)CCO3)cs1` [Compound 688], the IC50 at BRM and at BRG-1 was more than 10 nM each time.

In the case of `CC(C)(C)n1ccc(C(=O)NCC(=O)Nc2nc(-c3cccc(N4C[C@@H]5[C@@H](CF)[C@@H]5C4)n3)cs2)c1` [Compound 689], the IC50 on BRM and on BRG-1 was more than 100 nM in each case.

`CC(C)(C)n1ccc(C(=O)NCC(=O)Nc2nc(-c3cccc(N4CC[C@H](F)C4)n3)cs2)c1` [Compound 690]: the IC50 on BRM was more than 10 nM; on BRG-1 it was more than 100 nM.

On to `COC[C@H](NC(=O)c1ccn(S(C)(=O)=O)c1)C(=O)Nc1nc(-c2cccc(N3CC[C@@H](C(F)F)C3)n2)cs1` [Compound 691], for which the figures for the IC50 on BRM and at BRG-1 were more than 10 nM and more than 100 nM, respectively.

As for `CC(C)(C)n1ccc(C(=O)NCC(=O)Nc2nc(-c3cccc(N4CCn5ncnc5C4)n3)cs2)c1` [Compound 692], the IC50 on BRM and on BRG-1 was more than 10 nM throughout.

Turning to `C[C@@H]1CN(c2cncc(-c3csc(NC(=O)CNC(=O)c4ccn(S(C)(=O)=O)c4)n3)n2)C[C@H](C)O1` [Compound 693], the figures for the IC50 at BRM and on BRG-1 were less than 10 nM and more than 10 nM, respectively.

`COC[C@H](NC(=O)c1ccn(S(C)(=O)=O)c1)C(=O)Nc1nc(-c2cc(F)c3c(c2)OCO3)cs1` [Compound 695]: the IC50 at BRM and at BRG-1 was less than 10 nM in each case.

On to `Cn1ccc(C2CCN(c3cccc(-c4csc(NC(=O)CNC(=O)c5ccn(C(C)(C)C)c5)n4)n3)CC2)n1` [Compound 696], for which the IC50 at BRM and on BRG-1 was more than 100 nM in each case.

For `CC(C)(C)n1ccc(C(=O)NCC(=O)Nc2nc(-c3cccc(N4CCCC(OC(F)F)C4)n3)cs2)c1` (stereo not shown) [Compound 697], the IC50 at BRM and at BRG-1 was more than 10 nM throughout.

For the compound `CS(=O)(=O)n1ccc(C(=O)NCC(=O)Nc2nc(-c3cccc(N4CC[C@H](C(F)F)C4)n3)cs2)c1` [Compound 698], the IC50 on BRM and on BRG-1 was more than 10 nM each time.

For `COC[C@H](NC(=O)c1ccn(S(C)(=O)=O)c1)C(=O)Nc1nc(-c2cccc(N3CC[C@H](C(F)F)C3)n2)cs1` [Compound 699], the IC50 on BRM and at BRG-1 was more than 10 nM each time.

On to `COc1cc(F)cc(-c2csc(NC(=O)CNC(=O)c3ccn(S(C)(=O)=O)c3)n2)c1` [Compound 701], for which the IC50 is less than 10 nM on BRM and more than 10 nM at BRG-1.

Take `Cc1nc(C2CCCN(c3cccc(-c4csc(NC(=O)CNC(=O)c5ccn(C(C)(C)C)c5)n4)n3)C2)no1` (stereo not shown) [Compound 704]: the IC50 on BRM and on BRG-1 was more than 10 nM each time.

As for `C[C@@H]1CN(c2cncc(-c3csc(NC(=O)CNC(=O)c4ccn(C(C)(C)C)c4)n3)n2)C[C@H](C)O1` [Compound 705], the IC50 at BRM and on BRG-1 was more than 10 nM each time.

In the case of `Cn1cc(N2CCN(c3cccc(-c4csc(NC(=O)CNC(=O)c5ccn(C(C)(C)C)c5)n4)n3)CC2)cn1` [Compound 706], the IC50 on BRM and at BRG-1 was more than 100 nM in each case.
